Columns and labels:
[1] = tested on: dry eye syndrome model New Zealand rabbits; assay: Dry eye syndrome experiment (benzalkonium chloride model): tear secretion test with phenol red cotton threads; type: in vivo, male New Zealand White rabbits; details: for tear secretion: compared with the model group
Protocol: (§1) Positive control drug: Fluorometholone Eye Drops (specification: 5 mL/5 mg; Santen Pharmaceutical (CHINA) Co., Ltd.; Lot No.: 1FM6625) was used as the positive control drug and stored at room temperature protected from light until use.
Thirty male New Zealand White rabbits (conventional grade) were prepared. Six rabbits were randomly selected as the blank control group, and the remaining animals were administered 0.1% benzalkonium chloride to the left eye twice daily (morning and evening) , 10 µL/animal each time. On day 6 of modeling, tear secretion was measured using phenol red cotton threads to determine whether the model was successfully established. […] During the administration, all animals except the blank control group were administered 10 µL of 0.1% benzalkonium chloride to the left eye once daily to maintain dry eye symptoms..
• Test time: D3, D7, D15; • Test animals: All animals were tested before grouping; all enrolled surviving animals were tested after administration; • Test method: Tear secretion was measured using phenol red cotton threads. The tear secretion test paper was folded and placed at the middle and outer 1/3 of the rabbit palpebral conjunctival sac for 1 min. The test paper was then removed, observed, and recorded for its wetting length. The test was repeated 3 times, and the values were averaged.
(§2) The normality and homogeneity of variance were tested by Levene's test. If there was no statistical significance (P > 0.05), one-way analysis of variance (ANOVA) was used for statistical analysis. If ANOVA was statistically significant (P ≤ 0.05), LSD test (parametric method) was used for comparative analysis. If the variance was heterogeneous (P ≤ 0.05), Kruskal-Wallis test was used. If the Kruskal-Wallis test was statistically significant (P ≤ 0.05), Dunnett's test (nonparametric method) was used for comparative analysis.

[2] = tested on: dry eye syndrome model New Zealand rabbits; assay: Dry eye syndrome experiment (benzalkonium chloride model): corneal fluorescein sodium staining; type: in vivo, male New Zealand White rabbits; details: for inflammatory response on the ocular surface / ocular symptoms: compared with the model group
Protocol: Pharmacological Example 6: Therapeutic Pharmacodynamic Experiment on Dry Eye Syndrome in New Zealand Rabbits
as §1
Thirty male New Zealand White rabbits (conventional grade) were prepared. Six rabbits were randomly selected as the blank control group, and the remaining animals were administered 0.1% benzalkonium chloride to the left eye twice daily (morning and evening) , 10 µL/animal each time. […] During the administration, all animals except the blank control group were administered 10 µL of 0.1% benzalkonium chloride to the left eye once daily to maintain dry eye symptoms..
• Test time: D3, D7, D15; • Test animals: All animals were tested before grouping; all enrolled surviving animals were tested after administration; • Test method: 2 µL of 1% Fluorescein sodium was dropped into the conjunctival sac. After 5 s, the excess fluorescein was rinsed with 0.9% normal saline. The conjunctival staining was observed under a slit lamp with cobalt blue diffused light.
as §2

[3] = tested on: inflammatory cytokines (TNF-α); assay: Anti-uveitis pharmacodynamic experiment (LPS model): inflammatory cytokines in aqueous humor (ELISA); type: in vivo, male SD rats; details: values not given
Protocol: Pharmacological Example 5. Pharmacodynamic Experiment on Anti-Uveitis
Test samples: Compounds 23 and 26 were prepared as 5 mg/5 mL ophthalmic suspensions with reference to the formulation of Fluorometholone Eye Drops, and stored at room temperature protected from light until use.
Positive control drug: Fluorometholone Eye Drops (specification: 5 mL/5 mg; Santen Pharmaceutical (CHINA) Co., Ltd.; Lot No. : J20180068) was used as the positive control drug and stored at room temperature protected from light until use.
Fifty male SD rats underwent a one-week adaptive feeding period. The animals were randomly divided into 5 groups: Group 1 served as the blank control group, and Groups 2 to 5 were the model group, fluorometholone group, compound 23 group, and compound 26 group, respectively. Groups 2 to 5 were used to establish rat uveitis models by single subcutaneous injection of 1 mg/kg LPS (Salmonella; Sigma; Lot No. 0000164114) into the plantar tissue of the hindpaw. Salmonella endotoxin was dissolved in normal saline to prepare an injection solution at a concentration of 2 mg/mL, which was injected subcutaneously at 1 mg/kg into the plantar tissue of one paw of the rats. Group 1 was injected with an equal volume of normal saline.
After modeling, 40 µL of normal saline was administered to the eyes (bilateral) of the rats in the blank control group and model group, and 40 µL of the corresponding drugs were administered to the eyes (bilateral) of the […] in the compound 23 group, compound 26 group, and positive drug fluorometholone group, 3 times a day for 2 days. Table 8. Animal grouping and drug administration dosages
Thirty hours after modeling, aqueous humor was collected from both eyes of rats, and partial eyeball tissues of rats were collected. The level of the inflammatory cytokines (TNF-α) was detected using a rat ELISA assay kit.
Statistical analysis was performed using SPSS software. Measurement data were expressed as mean ± standard deviation. One-way ANOVA was used for intergroup comparisons. For data with homogeneous variance, LSD test was used; for data with heterogeneous variance, Dunnett-t test was used. A value of P < 0.05 was considered statistically significant.

[4] = tested on: inflammatory bowel disease model rats; assay: Inflammatory bowel disease experiment (TNBS model): macroscopic injury score of the colon; type: in vivo; details: for inflammatory response on the intestinal surface / intestinal symptoms: compared with the model group
Protocol: Pharmacological Example 7: Pharmacodynamic Experiment on Inflammatory Bowel Disease in Rats
Test samples: The jet-milled compounds 23 and 34 were accurately weighed and prepared as 2 mg/mL clear solutions using anhydrous ethanol, respectively. The solutions were then diluted to 0.2 mg/mL with double-distilled water as the test samples, and stored at room temperature protected from light until use.
Animals in Groups 2 to 5 were subjected to trinitrobenzene sulfonic acid (TNBS) modeling as follows: A 5% TNBS aqueous solution was adjusted to 20 mg/mL TNBS (50% ethanol solution) with alcohol and water. After fasting for 24 h, the rats were anesthetized using an inhalation anesthesia machine. A silicone hose was inserted approximately 8 cm into the anus, and then TNBS was injected at a dose of 50 mg/kg. After injection, the rats were placed vertically for 1 min to prevent the backflow of TNBS solution. Then, the rats were placed into their cages for observation until the animals recovered.
Drug administration started one day before modeling, with one dose administered 1 hour before modeling and then once a day for 5 consecutive days. […] Table 14. Animal grouping and drug administration dosages
The experiment ended on day 5 after TNBS modeling. After isoflurane anesthesia, blood was collected from the hearts, and the rats were euthanized. The abdominal cavity was rapidly opened, and the macroscopic injury scoring of the colon in rats was performed based on the adhesion, obstruction, thickening of the colonic wall, colonic congestion, and necrosis in the colon area. After clearing the colonic contents, the colonic samples were longitudinally incised. The proximal 2/3 of the colon was excised, prepared into Swiss rolls, and stored in 4% neutral buffered formalin for histopathological analysis. Tissues were trimmed, dehydrated, paraffin-embedded, and sectioned (approximately 5 µm thickness), stained with hematoxylin-eosin (HE), and observed for pathological changes. Pathologists performed blind scoring of colonic lesions.
Quantitative indices were first subjected to Bartlett's test for homogeneity of variance. When the variance was homogeneous (P > 0.05), one-way analysis of variance (ANOVA) was used for a statistical test; if there was statistical significance (P ≤ 0.05), Dunnett's t-test (Dunnett method) was used to compare intergroup differences; if there was no statistical significance (P > 0.05), the statistical analysis was concluded. When the variance was heterogeneous (P ≤ 0.05), Kruskal-Wallis H rank-sum test (K-W method) was used for statistical analysis: if there was statistical significance (P ≤ 0.05), Mann-Whitney U test (M-W method) was further performed to compare intergroup differences; if there was no statistical significance (P > 0.05), the statistical analysis was concluded.

[5] = Stability in animal lung tissue homogenate, skin tissue homogenate and aqueous humor; type: in vitro ADME
[6] = tested on: intraocular pressure of guinea pigs; assay: Adverse reactions of continuous ocular administration: intraocular pressure; type: in vivo; details: for Intraocular pressure of guinea pigs (mmHg) D0: D0, before administration; for Intraocular pressure of guinea pigs (mmHg) D0 / Intraocular pressure of guinea pigs (mmHg) D7 / Intraocular pressure of guinea pigs (mmHg) D14 / Intraocular pressure of guinea pigs (mmHg) D21 / Intraocular pressure of guinea pigs (mmHg) D28: 50 µL/eye (compounds and fluorometholone 1 mg/mL, loteprednol 5 mg/mL)
In short: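 Guinea pigs (300-350 g, both sexes) dosed bilaterally with 5 mg/5 mL ophthalmic suspensions, saline as blank; intraocular pressure measured before dosing and on days 7, 14, 21 and 28.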

[7] = D3, 1 mg/mL, 50 µL/eye, 3 times a day for 14 days
[8] = D7, 1 mg/mL, 50 µL/eye, 3 times a day for 14 days
[9] = D15, 1 mg/mL, 50 µL/eye, 3 times a day for 14 days

SMILES: C[C@]12C=CC(=O)C=C1CC[C@H]1[C@@H]3C[C@H]4OC(c5ccc(CSC6CCOC6=O)nc5)O[C@@]4(C(=O)CO)[C@@]3(C)C[C@H](O)[C@@]12Cl (stereo partly drawn) [Compound 48, (6aS,6bR,7S,8aS,8bS,11aR,12aS,12bS)-6b-Chloro-7-hydroxy-8b-(2-hydroxyacetyl)-6a,8a-dimethyl-10-(6-(((2-oxotetrahydrofuran-3-yl)thio)methyl)pyridin-3-yl)-1,2,6a,6b,7,8,8a,8b,11a,12,12a,12 b-dodecahydro-4H-naphtho[2',1':4,5]indeno[1,2-d][1,3]dioxol-4-one]
- tear secretion [1]: significantly increased the tear secretion
- inflammatory response on the ocular surface / ocular symptoms [2]: significantly alleviated the ocular symptoms in dry eye syndrome model New Zealand rabbits
- inflammatory cytokines in aqueous humor [3]: suppressed inflammatory cytokines in aqueous humor
- inflammatory response on the intestinal surface / intestinal symptoms [4]: significantly alleviated the intestinal symptoms in inflammatory bowel disease model rats
- stability in animal lung tissue homogenate, skin tissue homogenate, and aqueous humor [5]: relatively stable
- intraocular pressure after continuous ocular administration [6]: no abnormal intraocular pressure observed

SMILES: C[C@]12C=CC(=O)C=C1CC[C@H]1[C@@H]3C[C@H]4OC(c5ccc(CSC6CCOC6=O)cc5)O[C@@]4(C(=O)CO)[C@@]3(C)C[C@H](O)[C@@]12Cl (stereo partly drawn) [Compound 23, (6aS,6bR,7S,8aS,8bS,11aR,12aS,12bS)-6b-Chloro-7-hydroxy-8b-(2-hydroxyacetyl)-6a,8a-dimethyl-10-(4-(((2-oxotetrahydrofuran-3-yl)thio)methyl)phenyl)-1,2,6a,6b,7,8,8a,8b,11a,12,12a,12b-do decahydro-4H-naphtho[2',1':4,5]indeno[1,2-d][1,3]dioxol-4-one]
- Wetting length of phenol red cotton threads (mm) D0 ([1]; D0, 1 mg/mL, 50 µL/eye, 3 times a day for 14 days): 28.24 ± 6.22 mm
- Wetting length of phenol red cotton threads (mm) D3 [1, 7]: 29.4 ± 4.63 mm
- Wetting length of phenol red cotton threads (mm) D7 [1, 8]: 31.88 ± 6.20 mm
- Wetting length of phenol red cotton threads (mm) D15 [1, 9]: 36.05 ± 5.74" mm
- tear secretion [1]: significantly increased the tear secretion on day 15
- Corneal fluorescein sodium staining score D3 [2, 7]: 2.17 ± 0.98
- Corneal fluorescein sodium staining score D7 [2, 8]: 1.0 ± 0.98
- Corneal fluorescein sodium staining score D15 [2, 9]: 1.0 ± 0.63"
- inflammatory response on the ocular surface / ocular symptoms [2]: significantly inhibited the inflammatory response on the ocular surface on day 15
- inflammatory cytokines in aqueous humor [3]: suppressed inflammatory cytokines in aqueous humor
- Macroscopic injury score ([4]; colon, day 5 after TNBS, 2 mg/kg once a day (compounds intraintestinally, dexamethasone by gavage)): 4.83 ± 1.10"
- inflammatory response on the intestinal surface / intestinal symptoms [4]: significantly inhibited the inflammatory response on the intestinal surface
- stability in animal lung tissue homogenate, skin tissue homogenate, and aqueous humor [5]: relatively stable
- intraocular pressure after continuous ocular administration [6]: no abnormal intraocular pressure was observed
- Intraocular pressure of guinea pigs (mmHg) D0 [6]: 13.5 ± 0.6 mmHg
- Intraocular pressure of guinea pigs (mmHg) D7 [6]: 15.3 ± 1.7 mmHg
- Intraocular pressure of guinea pigs (mmHg) D14 [6]: 15.3 ± 1.5 mmHg
- Intraocular pressure of guinea pigs (mmHg) D21 [6]: 15.3 ± 2.2 mmHg
- Intraocular pressure of guinea pigs (mmHg) D28 [6]: 14.9 ± 1.6 mmHg

SMILES: C[C@]12C=CC(=O)C=C1CC[C@H]1[C@@H]3C[C@H]4OC(c5ccc(CSC6CCOC6=O)cc5)O[C@@]4(C(=O)CO)[C@@]3(C)C[C@H](O)[C@@]12F (stereo partly drawn) [Compound 17, (6aS,6bR,7S,8aS,8bS,11aR,12aS,12bS)-6b-Fluoro-7-hydroxy-8b-(2-hydroxyacetyl)-6a,8a-dimethyl-10-(4-(((2-oxotetrahydrofuran-3-yl)thio)methyl)phenyl)-1,2,6a,6b,7,8,8a,8b,11a,12,12a,12b-do decahydro-4H-naphtho[2',1':4,5]indeno[1,2-d][1,3]dioxol-4-one]
- tear secretion [1]: significantly increased the tear secretion
- inflammatory response on the ocular surface / ocular symptoms [2]: significantly alleviated the ocular symptoms in dry eye syndrome model New Zealand rabbits
- inflammatory cytokines in aqueous humor [3]: suppressed inflammatory cytokines in aqueous humor
- inflammatory response on the intestinal surface / intestinal symptoms [4]: significantly alleviated the intestinal symptoms in inflammatory bowel disease model rats
- stability in animal lung tissue homogenate, skin tissue homogenate, and aqueous humor [5]: relatively stable
- intraocular pressure after continuous ocular administration [6]: no abnormal intraocular pressure was observed
- Intraocular pressure of guinea pigs (mmHg) D0 [6]: 13.5 ± 0.6 mmHg
- Intraocular pressure of guinea pigs (mmHg) D7 [6]: 16.0 ± 1.4 mmHg
- Intraocular pressure of guinea pigs (mmHg) D14 [6]: 14.5 ± 1.9 mmHg
- Intraocular pressure of guinea pigs (mmHg) D21 [6]: 13.3 ± 2.5 mmHg
- Intraocular pressure of guinea pigs (mmHg) D28 [6]: 14.3 ± 1.5 mmHg

SMILES: C[C@]12C=CC(=O)C=C1[C@@H](F)C[C@H]1[C@@H]3C[C@H]4OC(c5ccc(CSC6CCOC6=O)nc5)O[C@@]4(C(=O)CO)[C@@]3(C)C[C@H](O)[C@@]12F (stereo partly drawn) [Compound 46, (25,6aS,6bR,78,8a8,8bS,11aR,12a8,12b8S)-2,6b-Difluoro-7-hydroxy-8b-(2-hydroxyacetyl)-6a,8a-dimethyl-10-(6-(((2-oxotetrahydrofuran-3-yl)thio)methyl)pyridin-3-yl)-1,2,6a,6b,7,8,8a,8b,11a,12, 12a,12b-dodecahydro-4H-naphtho[2',1':4,5]indeno[1,2-d][1,3]dioxol-4-one]
- tear secretion [1]: significantly increased the tear secretion
- inflammatory response on the ocular surface / ocular symptoms [2]: significantly alleviated the ocular symptoms in dry eye syndrome model New Zealand rabbits
- inflammatory cytokines in aqueous humor [3]: suppressed inflammatory cytokines in aqueous humor
- inflammatory response on the intestinal surface / intestinal symptoms [4]: significantly alleviated the intestinal symptoms in inflammatory bowel disease model rats
- stability in animal lung tissue homogenate, skin tissue homogenate, and aqueous humor [5]: relatively stable
- intraocular pressure after continuous ocular administration [6]: no abnormal intraocular pressure observed

— patent publication EP4635969A1, “NOVEL GLUCOCORTICOID, METHOD FOR PREPARING SAME, AND USE THEREOF” (Tianjin Pharmaceutical Biotechnology Co., Ltd., priority 2022, dated 2024)
